The target in this assay is T1, human metabotropic glutamate receptor 5 (hmGluR5) (Homo sapiens, UniProt P41594).
T1 construct: expressed in transfected cells
Kind of assay: Calcium mobilization (FLIPR) assay for negative allosteric modulation, EC80 glutamate, hmGluR5 in HEK 293. Format: cell-based. The following applies: HEK293; hmGluR5, inhibition of EC80 glutamate response; read-out: FLIPR maximum inhibition. On the procedure: The cDNA for rat metabotropic glutamate receptor 5 (rmGluR5) and the cDNA for human metabotropic glutamate receptor 5 (hmGluR5) were generous gifts from S. Nakanishi (Kyoto University, Kyoto, Japan). The rmGluR5 or hmGluR5 was stably expressed in a HEK 293 cell line and grown in Dulbecco's Modified Eagle Medium (DMEM) (Invitrogen, Carlsbad, Calif.) with supplements (10% bovine calf serum, 4 mM glutamine, 100 units/mL penicillin, 100 μg/mL streptomycin and 0.75 mM G1418) at 37° C., 5% CO2. Twenty-four hours prior to assay, cells were seeded into 384-well black wall microtiter plates coated with poly-D-lysine. Just prior to assay, media was aspirated and cells dye-loaded (25 μL/well) with 3 μM Fluo-4/0.01% pluronic acid in assay buffer (Hank's Balanced Saline Solution (HBSS)): 150 mM NaCl, 5 mM KCl, 1 mM CaCl2, 1 mM MgCl2, plus 20 mM N-2-Hydroxyethylpiperazine-N′-2-ethanesulfonic acid (HEPES), pH 7.4, 0.1% bovine serum albumin (BSA) and 2.5 mM probenicid) for 1 hour in 5% CO2 at 37° C. After excess dye was discarded, cells were washed in assay buffer and layered with a final volume equal to 30 μL/well. Basal fluorescence is monitored in a fluorometric imaging plate reader (FLIPR) (Molecular Devices, Sunnyvale, Calif.) with an excitation wavelength of 488 nm and an emission range of 500 to 560 nm. Laser excitation energy was adjusted so that basal fluorescence readings were approximately 10,000 relative fluorescent units. Cells were stimulated with an EC20 or an EC80 concentration of glutamate in the presence of a compound to be tested, both diluted in assay buffer, and relative fluorescent units were measured at defined intervals (exposure=0.6 sec) over a 3 min period at room temperature. Basal readings derived from negative controls were subtracted from all samples. Maximum change in fluorescence was calculated for each well. Concentration-response curves derived from the maximum change in fluorescence were analyzed by nonlinear regression (Hill equation). A negative modulator can be identified from these concentration-response curves if a compound produces a concentration dependent inhibition of the EC80 glutamate response.

T1 sequence (P41594 21-1212): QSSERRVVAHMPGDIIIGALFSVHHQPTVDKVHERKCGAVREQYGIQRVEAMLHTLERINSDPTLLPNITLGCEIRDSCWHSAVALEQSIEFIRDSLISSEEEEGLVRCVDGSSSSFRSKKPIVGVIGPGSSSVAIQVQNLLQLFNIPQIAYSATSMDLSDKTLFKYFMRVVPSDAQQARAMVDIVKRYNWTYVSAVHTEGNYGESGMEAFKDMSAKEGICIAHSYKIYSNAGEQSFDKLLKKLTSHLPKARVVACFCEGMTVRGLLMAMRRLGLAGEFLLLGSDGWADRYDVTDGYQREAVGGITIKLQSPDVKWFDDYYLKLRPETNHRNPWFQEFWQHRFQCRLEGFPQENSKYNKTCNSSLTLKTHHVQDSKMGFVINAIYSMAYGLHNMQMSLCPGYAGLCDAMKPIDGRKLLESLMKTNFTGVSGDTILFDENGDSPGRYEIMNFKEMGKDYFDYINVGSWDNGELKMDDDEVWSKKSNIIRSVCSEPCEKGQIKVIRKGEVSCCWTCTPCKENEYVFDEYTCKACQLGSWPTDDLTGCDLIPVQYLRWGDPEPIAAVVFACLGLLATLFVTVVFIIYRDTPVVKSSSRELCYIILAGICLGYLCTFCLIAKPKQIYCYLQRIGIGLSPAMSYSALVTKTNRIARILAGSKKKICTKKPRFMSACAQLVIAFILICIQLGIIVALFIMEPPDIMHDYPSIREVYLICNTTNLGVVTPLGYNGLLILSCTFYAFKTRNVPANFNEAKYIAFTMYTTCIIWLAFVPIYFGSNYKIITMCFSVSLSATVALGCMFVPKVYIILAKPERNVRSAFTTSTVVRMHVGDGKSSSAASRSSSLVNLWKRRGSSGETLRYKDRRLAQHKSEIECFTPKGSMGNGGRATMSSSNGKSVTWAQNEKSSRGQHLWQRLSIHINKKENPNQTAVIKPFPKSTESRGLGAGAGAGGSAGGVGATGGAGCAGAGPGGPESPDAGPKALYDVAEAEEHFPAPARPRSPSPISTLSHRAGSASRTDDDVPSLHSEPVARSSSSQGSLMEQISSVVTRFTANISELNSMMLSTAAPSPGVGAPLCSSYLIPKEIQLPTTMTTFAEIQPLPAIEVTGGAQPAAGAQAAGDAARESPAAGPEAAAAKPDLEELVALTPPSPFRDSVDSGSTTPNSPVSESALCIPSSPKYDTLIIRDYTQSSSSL

For `Cc1nccc(N2CC[C@]3(CCC[C@H](NC(=O)c4cccc(Cl)c4)C3)C2=O)n1` (racemic) [Example 58], the Emax fell in the range of 73 to 95%.

With `Cc1nccc(C(=O)N[C@H]2CCC[C@]3(CCN(c4cc(F)cc(F)c4)C3=O)C2)n1` (racemic) [Example 76, cis 2-Methyl-pyrimidine-4-carboxylic acid [2-(3,5-difluoro-phenyl)-1-oxo-2-aza-spiro[4.5]dec-7-yl]-amide], the Emax lay in the range of 73 to 95%. For `Cc1cc(C(=O)N[C@H]2CCC[C@]3(CCN(c4cccc(F)c4)C3=O)C2)ccn1` (racemic) [Example 78, cis-N-[2-(3-Fluoro-phenyl)-1-oxo-2-aza-spiro[4.5]dec-7-yl]-2-methyl-isonicotinamide], the Emax lay in the range of 73 to 95%.

For the molecule `Cc1cccc(C(=O)N[C@H]2CCC[C@]3(CCN(c4ccnc(C)n4)C3=O)C2)c1` (racemic) [Example 84, cis-3-Methyl-N-[2-(2-methyl-pyrimidin-4-yl)-1-oxo-2-aza-spiro [4.5]dec-7-yl]-benzamide], the Emax lay in the range of 73 to 95%.

As for `O=C(N[C@@H]1CC(F)(F)C[C@@]2(CCN(c3cccc(F)c3)C2=O)C1)c1ccccn1` (racemic) [Example 97, cis-Pyridine-2-carboxylic acid [9,9-difluoro-2-(3-fluoro-phenyl)-1-oxo-2-aza-spiro[4.5]dec-7-yl]-amide], the Emax was 88 to 93%. `Cc1cccc(C(=O)N[C@@H]2CC(F)(F)C[C@@]3(CCN(c4ccc(F)cn4)C3=O)C2)n1` (racemic) [Example 109, cis-6-Methyl-pyridine-2-carboxylic acid [9,9-difluoro-2-(5-fluoro-pyridin-2-yl)-1-oxo-2-aza-spiro[4.5]dec-7-yl]-amide]: the Emax fell in the range of 47 to 93%. On to `O=C(N[C@@H]1CC(F)(F)C[C@@]2(CCN(c3cc(F)cc(F)c3)C2=O)C1)c1ccccn1` (racemic) [Example 110, cis-Pyridine-2-carboxylic acid [2-(3,5-difluoro-phenyl)-9,9-difluoro-1-oxo-2-aza-spiro[4.5]dec-7-yl]-amide], for which the Emax fell in the range of 47 to 93%. To `Cc1nccc(N2CC[C@@]3(C[C@@H](NC(=O)c4cccc(F)c4)CC(F)(F)C3)C2=O)n1` (racemic) [Example 128, cis-N-[9,9-Difluoro-2-(2-methyl-pyrimidin-4-yl)-1-oxo-2-aza-spiro[4.5]dec-7-yl]-3-fluoro-benzamide] belongs 47 to 93%.

In the case of `Cc1nccc(C(=O)N[C@@H]2CC(F)(F)C[C@@]3(CCN(c4cccc(F)c4)C3=O)C2)n1` (racemic) [Example 129, cis-2-Methyl-pyrimidine-4-carboxylic acid [9,9-difluoro-2-(3-fluoro-phenyl)-1-oxo-2-aza-spiro[4.5]dec-7-yl]-amide], the Emax lay in the range of 47 to 93%. In the case of `Cc1cncc(N2CC[C@]3(CCC[C@H](NC(=O)c4ccnc(C)n4)C3)C2=O)n1` (relative stereo) [Example 59, cis-2-Methyl-pyrimidine-4-carboxylic acid [2-(6-methyl-pyrazin-2-yl)-1-oxo-2-aza-spiro[4.5]dec-7-yl]-amide], the Emax lay in the range of 73 to 95%. As to `Cc1nccc(C(=O)N[C@H]2CCC[C@]3(CCN(c4cccc(C#N)c4)C3=O)C2)n1` (relative stereo) [Example 60, cis-2-Methyl-pyrimidine-4-carboxylic acid [2-(3-cyano-phenyl)-1-oxo-2-aza-spiro [4.5]dec-7-yl]-amide], the Emax fell in the range of 73 to 95%. For `Cc1nccc(C(=O)N[C@H]2CCC[C@]3(CCN(c4cccc(C(F)(F)F)n4)C3=O)C2)n1` (relative stereo) [Example 61, cis-2-Methyl-pyrimidine-4-carboxylic acid [1-oxo-2-(6-trifluoromethyl-pyridin-2-yl)-2-aza-spiro[4.5]dec-7-yl]-amide], the Emax lay within 73 to 95%. As to `Cc1cccc(C(=O)N[C@H]2CCC[C@]3(CCN(c4ccnc(C)n4)C3=O)C2)n1` (relative stereo) [Example 62, cis-6-methyl-pyridine-2-carboxylic acid [2-(2-methyl-pyrimidin-4-yl)-1-oxo-2-aza-spiro[4.5]dec-7-yl]-amide], the Emax lay within 73 to 95%. For the molecule `Cc1ccc(N2CC[C@]3(CCC[C@H](NC(=O)c4cccc(C)n4)C3)C2=O)cn1` (relative stereo) [Example 63, cis-6-Methyl-pyridine-2-carboxylic acid [2-(6-methyl-pyridin-3-yl)-1-oxo-2-aza-spiro[4.5]dec-7-yl]-amide], the Emax lay within 73 to 95%. As for `Cc1cccc(C(=O)N[C@H]2CCC[C@]3(CCN(c4cncc(F)c4)C3=O)C2)n1` (relative stereo) [Example 64, cis-6-Methyl-pyridine-2-carboxylic acid [2-(5-fluoro-pyridin-3-yl)-1-oxo-2-aza-spiro[4.5]dec-7-yl]-amide], the Emax was 73 to 95%.

`Cc1nccc(N2CC[C@]3(CCC[C@H](NC(=O)c4cccc(F)c4)C3)C2=O)n1` (relative stereo) [Example 65, cis-3-Fluoro-N-[2-(2-methyl-pyrimidin-4-yl)-1-oxo-2-aza-spiro[4.5]dec-7-yl]-benzamide]: the Emax is 73 to 95%. `Cc1cc(N2CC[C@]3(CCC[C@H](NC(=O)c4cccc(F)c4)C3)C2=O)ccn1` (relative stereo) [Example 66, cis-3-Fluoro-N-[2-(2-methyl-pyridin-4-yl)-1-oxo-2-aza-spiro[4.5]dec-7-yl]-benzamide]: the Emax fell in the range of 73 to 95%.

On to `O=C(N[C@H]1CCC[C@]2(CCN(c3cccc(F)c3)C2=O)C1)c1ccc(F)cn1` (relative stereo) [Example 68, cis-5-Fluoro-pyridine-2-carboxylic acid [2-(3-fluoro-phenyl)-1-oxo-2-aza-spiro [4.5]dec-7-yl]-amide], for which the Emax was in the range of 73 to 95%. To `Cc1nccc(C(=O)N[C@H]2CCC[C@]3(CCN(c4cccc(F)c4)C3=O)C2)n1` (relative stereo) [Example 69, cis-2-Methyl-pyrimidine-4-carboxylic acid [2-(3-fluoro-phenyl)-1-oxo-2-aza-spiro[4.5]dec-7-yl]-amide] belongs 73 to 95%; to `O=C(N[C@H]1CCC[C@]2(CCN(c3cccc(F)c3)C2=O)C1)c1ccncn1` (relative stereo) [Example 70, cis-Pyrimidine-4-carboxylic acid [2-(3-fluoro-phenyl)-1-oxo-2-aza-spiro [4.5]dec-7-yl]-amide], 73 to 95%. Regarding `Cc1cncc(N2CC[C@]3(CCC[C@H](NC(=O)c4cccc(C)n4)C3)C2=O)c1` (relative stereo) [Example 71, cis-6-Methyl-pyridine-2-carboxylic acid [2-(5-methyl-pyridin-3-yl)-1-oxo-2-aza-spiro[4.5]dec-7-yl]-amide], the Emax is 73 to 95%. Turning to `COc1cccc(N2CC[C@]3(CCC[C@H](NC(=O)c4cccc(C)n4)C3)C2=O)c1` (relative stereo) [Example 72, cis-6-Methyl-pyridine-2-carboxylic acid [2-(3-methoxy-phenyl)-1-oxo-2-aza-spiro[4.5]dec-7-yl]-amide], the Emax was 73 to 95%. In the case of `O=C(N[C@H]1CCC[C@]2(CCN(c3cncc(F)c3)C2=O)C1)c1ccccn1` (relative stereo) [Example 74, cis-Pyridine-2-carboxylic acid [2-(5-fluoro-pyridin-3-yl)-1-oxo-2-aza-spiro[4.5]dec-7-yl]-amide], the Emax was in the range of 73 to 95%. With `O=C(N[C@H]1CCC[C@]2(CCN(c3ccc(F)c(F)c3)C2=O)C1)c1ccccn1` (relative stereo) [Example 75, cis-Pyridine-2-carboxylic acid [2-(3,4-difluoro-phenyl)-1-oxo-2-aza-spiro[4.5]dec-7-yl]-amide], the Emax was in the range of 73 to 95%.

For the molecule `O=C(N[C@H]1CCC[C@]2(CCN(c3cccc(F)c3)C2=O)C1)c1ccncc1` (relative stereo) [Example 77, cis-N-[2-(3-Fluoro-phenyl)-1-oxo-2-aza-spiro[4.5]dec-7-yl]-isonicotinamide], the Emax was 73 to 95%. To `O=C(N[C@H]1CCC[C@]2(CCN(c3cc(F)cc(F)c3)C2=O)C1)c1ccncn1` (relative stereo) [Example 79, cis-Pyrimidine-4-carboxylic acid [2-(3,5-difluoro-phenyl)-1-oxo-2-azaspiro[4.5]dec-7-yl]-amide] belongs 73 to 95%; to `Cc1cccc(C(=O)N[C@H]2CCC[C@]3(CCN(Cc4ccccc4)C3=O)C2)n1` (relative stereo) [Example 83, cis-6-methyl-pyridine-2-carboxylic acid (2-benzyl-1-oxo-2-aza-spiro[4.5]dec-7-yl)-amide], 73 to 95%.

With `Cc1nccc(N2CC[C@]3(CCC[C@H](NC(=O)c4cc(F)cc(F)c4)C3)C2=O)n1` (relative stereo) [Example 85, cis-3,5-Difluoro-N-[2-(2-methyl-pyrimidin-4-yl)-1-oxo-2-aza-spiro [4.5]dec-7-yl]-benzamide], the Emax lay within 73 to 95%.
